Reference: publication PMC9973354 (mBio, 2022)
Starred links: 1 amine or outer side, 2 acyl side, 3 side chain; linkers in the order of their positions; H or OH if unused. Positions of bridges follow the written chain, without caps; N, C: chain ends. Non-standard residues stand in square brackets, D forms with d. Residues, ends and D or L forms follow the SMILES beside them. ξ: configuration not given here. X1 = O=C([C@@H]1CCN=C2C(N[*:1])=Cc3cc(O)c(O)cc3N21)[*:2]; ξOrn(N(OH)CHO) = NC(CCCN(O)C=O)C(=O)O; Suc = O=C(CCC(=O)[*:2])[*:1]; ξK = NCCCCC(N)C(=O)O; ξS = NC(CO)C(=O)O

Columns and labels:
Type in all cases: cell-based, Pseudomonas aeruginosa
PA14 ΔfpvB mutant = assay: Growth curves with DSX and siderophores, ΔfpvB; conditions: 20 h
Method: Supplementary file : FIG S1 (A) FpvB is expressed in WT PA14 and the ΔfpvA mutant grown in 10:90. PilF was used as a loading control for outer membrane proteins. (B) FpvA is expressed from WT PA14 grown in 10:90. […] PilF was used as a loading control for outer membrane proteins. (C) Growth curves of PA14 and mutants with DSX and different siderophores in 10:90. PA14, ΔfpvA, ΔfpvB, ΔfpvA ΔfpvB, and ΔpvdA ΔpchA strain growth. Blue indicates control, purple indicates treatment with 64 μg/mL DSX, yellow indicates treatment with 10 μg/mL pyoverdine (PA14), and red indicates treatment with 64 μg/mL DSX and 10 μg/mL pyoverdine (PA14). (D) ΔfpvA, ΔfpvA ΔfpvB, and ΔpvdA ΔpchA strain growth. Blue indicates control, purple indicates treatment with 64 μg/mL DSX, grey indicates treatment with 10 μg/mL ferrichrome, and red indicates treatment with 64 μg/mL DSX and 10 μg/mL ferrichrome. (E) ΔfpvA, ΔfpvA ΔfpvB, and ΔpvdA ΔpchA strain growth. […] Download FIG S1, EPS file, 8.5 MB.
Another explanation for the susceptibility of the ΔfpvA mutant to DSX is that the mutant produces less pyoverdine compared to WT cells due to loss of the signaling cascade that controls siderophore production in response to its binding to FpvA ([25]). To differentiate whether the fpvA mutant was susceptible to DSX because of reduced pyoverdine production or because FpvB was a poor pyoverdine transporter, we treated the WT, ΔfpvA, ΔfpvB, and ΔfpvA ΔfpvB strains with DSX (64 μg/mL) without and with exogenous pyoverdine (10 μg/mL) for 20 h (Fig. 1; see also Fig. S1C). Growth of the ΔfpvA mutant should be restored if there are functional pyoverdine transporters. […] The growth of the ΔfpvA ΔfpvB mutant was inhibited by DSX and pyoverdine, confirming previously published results ([18]).

[1] = tested on: PA14 ΔfpvA ΔfpvB ΔfiuA ΔfoxA pHERD20T-fpvB R191A; assay: Growth of quadruple mutant expressing FpvB R191A; conditions: 10:90 + 2% arabinose
Method: (§1) Site-directed mutagenesis was used to confirm the docking predictions and to define the molecular determinants for ligand uptake through FpvB (Fig. 4C). We generated 17 single amino acid substitutions in FpvB and expressed each of them in trans in the quadruple ΔfpvA ΔfpvB ΔfiuA ΔfoxA mutant. Their ability to complement growth of the mutant in the presence of ferrichrome and ferrioxamine B and to restore TS susceptibility was assessed. […] The mutant transporters were tagged with a C-terminal FLAG tag to evaluate expression levels. FLAG-tagged FpvB mutants had WT levels of expression except for Y216T and W347V, which were expressed at 140% and 25% of WT, respectively.
(§2) The ΔfpvA ΔfpvB ΔfiuA ΔfoxA mutant was complemented with WT fpvA, fpvB, fiuA, and foxA in trans as controls (Fig. 4E).
(§3) MIC assays were conducted as previously described ([13], [14]). Overnight cultures were grown in LB from a glycerol stock at 37°C with shaking (200 rpm). Subcultures in 10:90 (1:100 dilution) were cultured for 4 h. Cells were adjusted to an optical density at 600 nm (OD600) of 0.1/500 in 10:90. All compounds were serially diluted 2-fold in dimethyl sulfoxide (DMSO) or H2O at 75× the final concentration. […] The next day, the OD600 was determined with a plate reader (Thermo Scientific) and normalized to percent of growth of the vehicle control after subtracting the OD600 from blank media.

PA14 ΔfpvB ΔfoxA mutants = assay: Growth phenotypes of deletion mutants, ΔfpvB ΔfoxA; conditions: 10 μg/mL ferrioxamine B, 10:90
Source text: PA14, ΔfpvA, ΔfpvB, and ΔfpvA ΔfpvB strains treated with TS (A) and DSX (B) in 10:90. Green indicates growth, and white indicates no growth. Growth is expressed as percent of control. The PA14 ΔfpvA ΔfpvB strain complemented with pHERD20T, fpvA, or fpvB treated with TS (C) and DSX (D) in 10:90. […] All experiments are averaged from three independent biological replicates. Blue indicates growth and white indicates no growth. (H) Summary of growth phenotypes of WT PA14 and combinations of single, double, triple, and quadruple deletion mutants in fpvA, fpvB, fiuA, and foxA. […] Green indicates growth, whereas no growth is indicated in white. […] Representative plates are shown.
If there were no transporters for a particular siderophore, the mutant would fail to grow due to iron restriction.

[2] = tested on: PA14 ΔfpvA ΔfpvB ΔfiuA ΔfoxA pHERD20T-fpvB Y432A; assay: Growth of quadruple mutant expressing FpvB Y432A; conditions: 10:90 + 2% arabinose
Method: as §1, §2, §3

[3] = tested on: PA14 ΔfpvA ΔfpvB ΔfiuA ΔfoxA pHERD20T-fpvB W347V; assay: Growth of quadruple mutant expressing FpvB W347V; conditions: FpvB W347V (expressed at 25% of WT), 10:90 + 2% arabinose
Method: as §1, §2, §3

| SMILES | growth with siderophore in the presence of DSX (PA14 ΔfpvB mutant; 64 μg/mL DSX + 10 μg/mL pyoverdine) | growth versus control (PA14 ΔfpvB mutant; DSX 64 μg/mL or pyoverdine 10 μg/mL alone, 10:90) | growth in the presence of siderophore [1] | growth in the presence of compound (PA14 ΔfpvB ΔfoxA mutants) | growth in the presence of siderophore [2] | growth in the presence of siderophore [3] |
| --- | --- | --- | --- | --- | --- | --- |
| NCCCCC(NC(=O)C(CO)NC(=O)[C@@H]1CCN=C2C(NC(=O)CCC(=O)O)=Cc3cc(O)c(O)cc3N21)C(=O)NCC(=O)NC(CCCN(O)C=O)C(=O)NC1CCCCNC(=O)C(CO)NC(=O)C(CCCN(O)C=O)NC1=O (stereo partly drawn) [pyoverdine] (Suc-[X1][ξS][ξK]G[ξOrn(N(OH)CHO)][ξK][ξOrn(N(OH)CHO)][ξS]; lactam 6-C) | increased growth | increased growth |  |  |  |  |
| CC(=O)N(O)CCCCCNC(=O)CCC(=O)N(O)CCCCCNC(=O)CCC(=O)N(O)CCCCCN [ferrioxamine B] |  |  | prevented growth | failed to grow | prevented growth | prevented growth |
